Source: patent US11066481B2, “Antibodies to coagulation factor XIa and uses thereof” (THE REGENTS OF THE UNIVERSITY OF CALIFORNIA, priority 2015, dated 2021)

Tests used:
[1] = tested on: rabbit model of venous thromboembolism (VTE); test: rabbit model of venous thromboembolism (VTE); format: in vivo
Text: All procedures performed on these animals were in accordance with regulations and established guidelines and were reviewed and approved by an Institutional Animal Care and Use Committee or through an ethical review process. Rabbits were anesthetized according to established protocols. […] Furthermore, for the Rivaroxaban treated animals, the i.v. bolus injection was supplemented by a continuous i.v. infusion of Rivaroxaban to maintain proper dosing throughout the duration of the study due to short half-life concerns. For all treatment groups, 30 minutes after bolus injection, a sheath of the appropriate size was placed in the left femoral vein. Then a wire of approximately 14 cm with 8 strands of cotton thread attached to it (each 3 cm long) was inserted into the femoral vein. Fluoroscopy was used for guidance of the wire with the threads towards the target area in the vena cava. […] After 90 minutes the device was removed by surgical dissection, cut from the wire, and the clot-containing cotton threads were weighed after having been blotted dry. Prior to IgG dosing, and also prior to surgical removal of threads, a blood sample was drawn for preparation of serum (PK) and plasma (for PD biomarkers APTT and PT).

rabbit cuticle bleeding = rabbit cuticle bleeding study; format: in vivo; conditions: 1.5 mg/kg i.v. bolus plus infusion
Protocol: All procedures performed on these animals were in accordance with regulations and established guidelines and were reviewed and approved by an Institutional Animal Care and Use Committee or through an ethical review process. Rabbits were anesthetized according to established protocols. After anesthesia and cannulation etc., both front paws were shaved to remove fur that would otherwise contaminate saline and wick it out of the tube. Pre dosing bleeds were performed on the middle digit of the left front paw. Post dosing bleeds were performed on the same digit on the right front paw. There were four dosing groups of 10 animals each. […] Furthermore, for the Rivaroxaban treated animals, the i.v. bolus injection was supplemented by a continuous i.v. infusion of Rivaroxaban to maintain proper dosing throughout the duration of the study due to short half-life concerns. Nails were transilluminated with white light to visualize the quick and cut with a razor blade so as to transect the cuticle approximately 1 mm proximal to the apex of the quick. The nail was then immediately immersed in a saline solution in 10×75 mm 3 ml polystyrene (clear) tube. The tube with saline was stored at 37° C. before the cut. The nail was kept in the solution and time to cessation of flow was measured. […] At the end of the blood collection the tube is capped and inverted 5 times and centrifuged at 200 to 250×g for 15 min. The blood cell pellet was resuspended in 3 mL erythrocyte lysis buffer (8.3 g/L NH4Cl, 1.0 g/LKHCO3, and 0.037 g/L EDTA in water). After at least 15 min of lysis time, hemoglobin (Hb) concentration was measured at OD 575 nm using a Spectrophotometer) and expressed as arbitrary absorbance units. As indicated above, baseline cuticle bleeding times were performed prior to dosing. […] 30 minutes later a second cuticle cut was made and bleeding times recorded and blood loss measured. […]

[2] = 1.5 mg/kg i.v. bolus plus continuous infusion

Q: What does the source list for `O=C(NC[C@H]1CN(c2ccc(N3CCOCC3=O)cc2)C(=O)O1)c1ccc(Cl)s1` [Rivaroxaban]?
A: any read outs measured (thrombus weight, APTT, PT) ([1]; 0.045 mg/kg i.v. bolus plus continuous infusion): No effects; thrombus/clot weight [1, 2]: decreased thrombus/clot weight; time to clotting in APTT assay [1, 2]: prolonged time to clotting; time to clotting in PT assay [1, 2]: prolonged time to clotting; time to clotting in APTT coagulation assay (rabbit cuticle bleeding): significant prolongation in time to clotting; time to clotting in PT coagulation assay (rabbit cuticle bleeding): significant prolongation in time to clotting; total blood loss following cuticle cutting (rabbit cuticle bleeding): significantly increased total blood loss
